± gives the expanded uncertainty stated by the source.
Details: Liquid

CCCCCCCCCCCCCC(=O)OCC [ethyl tetradecanoate]
viscosity [mPa·s]
Details	293.15 K	313.15 K	333.15 K	353.15 K
101.3 kPa, Falling or rolling sphere viscometry	4.73 ± 0.11	2.96 ± 0.07	2.03 ± 0.05	1.48 ± 0.03
101.3 kPa, quartz crystal resonator	4.73 ± 0.11	2.96 ± 0.07	2.03 ± 0.05	1.48 ± 0.04
10000 kPa, quartz crystal resonator	5.36 ± 0.12	3.34 ± 0.08	2.3 ± 0.05	1.65 ± 0.04
20000 kPa, Falling or rolling sphere viscometry	6.1 ± 0.14	3.74 ± 0.08	2.53 ± 0.06	1.83 ± 0.04
20000 kPa, quartz crystal resonator	6.08 ± 0.14	3.71 ± 0.09	2.54 ± 0.06	1.84 ± 0.04
30000 kPa, quartz crystal resonator	6.83 ± 0.16	4.15 ± 0.1	2.82 ± 0.07	2.03 ± 0.05
40000 kPa, Falling or rolling sphere viscometry	7.68 ± 0.17	4.64 ± 0.1	3.09 ± 0.07	2.22 ± 0.05
40000 kPa, quartz crystal resonator	7.68 ± 0.18	4.63 ± 0.11	3.13 ± 0.07	2.24 ± 0.05
50000 kPa, quartz crystal resonator	–	5.1 ± 0.12	3.44 ± 0.08	2.44 ± 0.06
60000 kPa, Falling or rolling sphere viscometry	–	5.67 ± 0.13	3.73 ± 0.08	2.66 ± 0.06
60000 kPa, quartz crystal resonator	–	5.67 ± 0.13	3.76 ± 0.09	2.66 ± 0.06
70000 kPa, quartz crystal resonator	–	6.22 ± 0.14	4.08 ± 0.09	2.91 ± 0.07
80000 kPa, Falling or rolling sphere viscometry	–	6.86 ± 0.15	4.46 ± 0.1	3.16 ± 0.07
80000 kPa, quartz crystal resonator	–	6.89 ± 0.16	4.48 ± 0.1	3.14 ± 0.07
90000 kPa, quartz crystal resonator	–	7.56 ± 0.17	4.86 ± 0.11	3.41 ± 0.08
100000 kPa, Falling or rolling sphere viscometry	–	8.23 ± 0.18	5.27 ± 0.12	3.71 ± 0.08
100000 kPa, quartz crystal resonator	–	8.14 ± 0.18	5.25 ± 0.12	3.66 ± 0.08

CCCCCCCCCCCCCC(=O)OC [methyl tetradecanoate]
viscosity [mPa·s]
Details	303.15 K	313.15 K	333.15 K	353.15 K
101.3 kPa, Falling or rolling sphere viscometry	3.51 ± 0.08	2.8 ± 0.06	1.91 ± 0.04	1.4 ± 0.03
101.3 kPa, quartz crystal resonator	3.51 ± 0.08	2.8 ± 0.07	1.91 ± 0.05	1.4 ± 0.03
10000 kPa, quartz crystal resonator	3.95 ± 0.09	3.15 ± 0.07	2.14 ± 0.05	1.57 ± 0.04
20000 kPa, Falling or rolling sphere viscometry	4.43 ± 0.1	3.5 ± 0.08	2.37 ± 0.05	1.72 ± 0.04
20000 kPa, quartz crystal resonator	4.45 ± 0.1	3.5 ± 0.08	2.37 ± 0.06	1.74 ± 0.04
30000 kPa, quartz crystal resonator	4.95 ± 0.11	3.91 ± 0.09	2.61 ± 0.06	1.92 ± 0.05
40000 kPa, Falling or rolling sphere viscometry	5.51 ± 0.12	4.31 ± 0.1	2.89 ± 0.06	2.08 ± 0.05
40000 kPa, quartz crystal resonator	5.53 ± 0.13	4.33 ± 0.1	2.88 ± 0.07	2.11 ± 0.05
50000 kPa, quartz crystal resonator	6.11 ± 0.14	4.79 ± 0.11	3.16 ± 0.07	2.29 ± 0.05
60000 kPa, Falling or rolling sphere viscometry	–	5.24 ± 0.12	3.47 ± 0.08	2.47 ± 0.05
60000 kPa, quartz crystal resonator	6.79 ± 0.16	5.26 ± 0.12	3.46 ± 0.08	2.5 ± 0.06
70000 kPa, quartz crystal resonator	–	5.74 ± 0.13	3.76 ± 0.09	2.71 ± 0.06
80000 kPa, Falling or rolling sphere viscometry	–	6.31 ± 0.14	4.11 ± 0.09	2.9 ± 0.06
80000 kPa, quartz crystal resonator	–	6.29 ± 0.14	4.08 ± 0.09	2.92 ± 0.07
90000 kPa, quartz crystal resonator	–	–	4.46 ± 0.1	3.14 ± 0.07
100000 kPa, Falling or rolling sphere viscometry	–	7.54 ± 0.17	4.82 ± 0.11	3.38 ± 0.07
100000 kPa, quartz crystal resonator	–	–	4.81 ± 0.11	3.4 ± 0.08
